Reference: US12447137B2, “Composition for prevention, amelioration, or treatment of cancer” (EWHA UNIVERSITY—INDUSTRY COLLABORATION FOUNDATION, priority 2019, dated 2025)

Assays:
[1] = system: MDA-MB-231 cell line; test: Flow cytometry assay (Annexin V / PI); format: cell-based, human; settings: MDA-MB-231, 0 to 30 μM, 24 hours; FIG. 6
Experimental: The breast cancer cell line of Experimental Method 1 was treated with the compound of Production Example 6 at a concentration of 0 to 30 μM and cultured for 24 hours. Thereafter, the cultured cells were detached by trypsin, and then double-stained with Annexin V; recognizing apoptosis) and PI (propidium iodide; recognizing cell necrosis), and then the pattern and level of apoptosis were measured using flow cytometry.

[2] = system: 4T1-luc orthotopic graft (fat pad, s.c.); test: Tumor (lung) metastasis in orthotopic animal model, IVIS luminescence; format: in vivo, mouse; settings: 20 mg/kg intraperitoneal at 2-day intervals; compared to Vehicle; FIG. 9A, 9B
Excerpt: After 4-week-old athymic nude mice (female) were purchased, only healthy mice were selected while the mice were adapted to the environment of the animal breeding room for 7 days. For identification of each mouse, the ears were marked using an ear punch. In addition, the breeding box was identified by attaching a mouse identification card describing the test number, test substance name, test item, receipt date, test date, test content, and the person in charge of the test. The environment of the animal breeding room was maintained at a temperature of 22±3° C., a relative humidity of 50±20%, 10 to 15 ventilations/hour, a 12-hour light (8:30 to 20:30)/dark cycle, and an illuminance of 150 to 300 lux. In addition, the animals were fed feed and drinking water during the breeding period, and quarantined during the acclimatization and testing periods. […]
During a period ranging from the day the mouse breast cancer cell line 4T1-luc cell line was injected to the end of the experiment (dissection date), lung metastasis of the cancer cell line was checked at intervals of 1 to 2 days. After the animal model was anesthetized by inhalation with 2.5% isoflurane, luminescence intensity was measured using an in-vivo imaging system (IVIS). […]

[3] = system: 4T1-luc orthotopic graft (fat pad, s.c.); test: Survival rate in orthotopic animal model; format: in vivo, mouse; settings: 20 mg/kg intraperitoneal once every 3 days, 6 times; compared to Vehicle; FIG. 8D
Excerpt: After 4-week-old athymic nude mice (female) were purchased, only healthy mice were selected while the mice were adapted to the environment of the animal breeding room for 7 days. For identification of each mouse, the ears were marked using an ear punch. In addition, the breeding box was identified by attaching a mouse identification card describing the test number, test substance name, test item, receipt date, test date, test content, and the person in charge of the test. The environment of the animal breeding room was maintained at a temperature of 22±3° C., a relative humidity of 50±20%, 10 to 15 ventilations/hour, a 12-hour light (8:30 to 20:30)/dark cycle, and an illuminance of 150 to 300 lux. In addition, the animals were fed feed and drinking water during the breeding period, and quarantined during the acclimatization and testing periods.
The nude mice were anesthetized by inhalation with 2.5% isoflurane, and then injected with the mouse breast cancer cell line 4T1-luc of Experimental Method 1 by a sterile syringe. […]
During a period ranging from the day the mouse breast cancer cell line 4T1-luc was injected to the end of the experiment (the date of death), the volume of the tumor was measured once every 3 days and the survival rate of the animal model was checked every day. […]

[4] = system: AMPK; test: Cellular thermal shift assay (CTSA) of AMPK protein, Western blot; format: binding, human; settings: cells treated with compound; AMPK protein alone Tm 50° C.; FIG. 1
Experimental: In order to examine whether or not the compound of Production Example 6 and 13 compounds, including the compounds of Production Examples 1 to 5 and 8 to 15 having a similar structure (YE-01, 02, 03, 04, 05, 08, 09, 10, 11, 12, 13, 14 and 15), bind to the AMP binding site of AMPK, cellular thermal shift assay (CTSA) was performed. Specifically, the cultured human breast cancer-derived cell line (BT549 or MDA-MB-231 cell line) was detached from the culture dish using trypsin. The detached cell line was diluted in PBS, and the same amount of the cells were dispensed in each tube for PCR and heated for 3 minutes at a temperature of room temperature to 65° C. After completion of the heating, protein was isolated from the cell line using liquid nitrogen, and Western blot analysis was performed to confirm the temperature at which AMPK would be denatured by heat.

[5] = system: cleaved-PARP, Bcl-2 and Cyclin D1 proteins; test: Apoptosis marker Western blot in 4T1 cell line; format: cell-based, mouse; settings: FIG. 5
[6] = system: p-AMPK (Thr172); test: AMPK activation by p-AMPK (Thr172) Western blot in gastric cancer cell lines; format: cell-based, human; settings: 10 μM, 12 hours, compared to untreated group
Experimental: [3-2] The three breast cancer cell lines (4T1, BT549, and MDA-MB-231) of Experimental Method 1 were treated with each of the compound of Production Example 6 and 13 compounds, including the compounds of Production Examples 1 to 5 and 8 to 15 having a similar structure (YE-01, 02, 03, 04, 05, 08, 09, 10, 11, 12, 13, 14 and 15), at a concentration of 10 μM, and then cultured for 24 hours. In addition, each of two types of gastric cancer cell lines, brain cancer cell lines and pancreatic cancer cell lines was treated with the compound of Production Example 6 or the compound of Production Example 8 having a similar structure at a concentration of 10 μM and then cultured for 12 hours. Thereafter, the cells were harvested and lysed in RIPA buffer, and the protein was electrophoresed by SDS-PAGE, and then the expression level of the protein was analyzed using antibodies specific for AMPK and phospho-AMPK (Thr172). GAPDH or β-actin was used as a loading control for protein quantification.

[7] = system: 4T1 cell line; test: Clonogenic assay; format: cell-based, mouse; settings: 4T1, 10 μM; FIG. 2B
Experimental: The breast cancer cell line of Experimental Method 1 was dispensed into a 6-well plate at a density of 1 to 2×10^3 cells/well. After the cells were sufficiently attached, they were treated with the compound of Production Example 6 at a concentration of 0 to 30 μM and cultured for 10 days to 14 days. Next, the cultured cells were fixed with 4% formaldehyde and stained with 1% crystal violet, and the colonies were counted under a microscope.

[8] = system: EMT protein markers α-SMA, Vimentin, ZEB-1 and Slug; test: EMT protein marker Western blot, TGF-β1-treated MDA-MB-231 cells; format: cell-based, human; settings: MDA-MB-231, with TGF-β1; FIG. 7A
Experimental: The culture medium of the breast cancer cell line of Experimental Method 1 was replaced with a serum-free medium. Then, the cells were treated with 2 ng/mL of TGF-β1 and the compound of Preparation Example 6 and cultured for 20 to 24 hours. Thereafter, as described in Experimental Method 3, the expression level of the protein was measured using an antibody specific for the EMT-related protein.

COc1ccc(OC)c(/C=C/C(=O)c2ccc(NS(=O)(=O)c3ccc(Cl)cc3)cc2)c1 [Production Example 6, (E)-4-chloro-N-(4-(3-(2,5-dimethoxyphenyl)acryloyl)phenyl)benzenesulfonamide] was tested, and the “cells stained with annexin V or PI” value [1] was “increased in a concentration-dependent manner”, the “luminescence intensity in the lung (4T1-luc lung metastasis)” value [2] was “significantly decreased” and the survival rate [3] was “significantly improved”. For the same compound, the “Tm value of AMPK protein” value [4] was 55 °C, the “level of Bcl-2 protein” value [5] was “decreased” and the “level of Cyclin D1 protein” value [5] was “decreased”. The “level of apoptosis marker cleaved-PARP protein” value [5] was “increased”, the “expression of p-AMPK” value [6] was “increased” and the colony formation [7] was “significantly reduced”. For the same compound, the Slug protein [8] was “decreased”, the Vimentin protein [8] was “decreased” and the ZEB-1 protein [8] was “decreased”. The α-SMA protein [8] was “decreased”.
